# Test results from US5270041A, “Sterols, their fatty acid esters and glucosides; processes for their preparation; spontaneously dispersible agents containing these compounds, and their use for treatment of tumors” (Marigen S.A., priority 1989, dated 1993).
# Tests used:
# [1] = tested on: TSA: murine adenocarcinoma (spontaneous cancer of the breast); test: In-vitro plaque assay of MARIGENOL microemulsions, greatest cytotoxic dilution, TSA; assay type: cell-based; conditions: cell line TSA; 5 h; microemulsion 0,1%
# Experimental: A biological assay system using microtiter plates and serial dilutions has been developed Batches of 10^4 tumour cells per ml were set up in culture medium RPMI 1640 and […] with 10% of fetal calf serum (GIBCO); the cells are spread at a density low enough to enable them to grow during the assay in so-called non-confluent monolayers. Samples are added after 6-24 hours, with 100 μl per row, to which 100 μl of medium are added in the first well. Half of this mixture is withdrawn, transferred into the next well and again treated with 100 μl of medium, etc.
# In the plaque assay, the samples are incubated at 37° C. for 3-5 days under 31/2% of CO2. They are then stained and fixed using 0.1% crystal violet (Fluka, Buchs) in a solution of 70% of methanol, 1% of formaldehyde and 29% water. The samples are evaluated under the microscope, magnification 300×. The greatest cytotoxic dilution is determined. The samples can also be evaluated quantitatively by means of scanning and absorption measurement in a spectrophotometer.
# [2] = tested on: TSA adenocarcinoma; test: In-vivo assay on mice, TSA tumour growth, MARIGENOL 0,1% microemulsions; parameters: species or system mice (Balb-c); key: + swelling; conditions: 0,1% microemulsion
# Experimental: The in-vivo assays were carried out on female mice. Old Balb-c strain animals of 28-32 g body weight were used (Charles River, Milan). Used as comparison standards throughout was the spontaneous adenocarcinoma TSA, a murine tumour cell line which was provided regularly by Prof. Guido Forni, Istituto di Microbiologia, Universita degli Studi di Torino, Scuola di Medicina.
# A series of groups of 5 test animals each were fed with ordinary test feed (NAFAG complete feed No. 850, from Nahr- und Futtermittel AG, Gossau).
# 14 days after the introduction (average latency period), the newly-formed tissue is palpitated; ditto after 21 and after 28 days, and in some cases 35, days. The mean of the length and width of the solid, distinct tumour mass under the skin is determined (postmortem recheck).
# To test the activity of the preparations in live organisms, the remaining test animals receive a daily dose of 0.25 ml of a test preparation by tube, in addition to the ordinary test feed. After an adaptation period of 5-7 days, the tumour is introduced, likewise inguinally, with 80-100'000 TSA units, as for the controls. It takes in every single case, in the group and on repetition, thus permitting the statistical groups to be kept to a relatively low number.
# The experimental set-up is the same as in the case of gavage. Instead of using a tube, the preparations to be tested are administered inguinally by injection (right flank, subcutaneously), at a rate of 0.25 ml 3 times per week.
compound,measurement,setting,value
"CCCCCCCCCCCCCCCC(=O)O[C@H]1CC[C@@]2(C)C(=CC[C@H]3[C@@H]4CC[C@H]([C@H](C)/C=C/[C@@H](CC)C(C)C)[C@@]4(C)CC[C@@H]32)C1 [C 16:0 STIGMASTEROL, STIGMASTEROL-PALMITATE]",Active in dilution to 1:,[1],80 1:
"CC/C=C\C/C=C\C/C=C\CCCCCCCC(=O)O[C@H]1CC[C@@]2(C)C(=CC[C@H]3[C@@H]4CC[C@H]([C@H](C)CC[C@@H](CC)C(C)C)[C@@]4(C)CC[C@@H]32)C1 [C 18:3-SITOSTEROL, stigmast-5-en-3-ol-9,12,15-octadecatrienoate]",Tumor mass Σ1/2 L + B,[2]; TSA after 14 days,+
same,Tumor mass Σ1/2 L + B,[2]; TSA after 21 days,+
same,Tumor mass Σ1/2 L + B,[2]; TSA after 28 days,1 mm
"CCCCC/C=C\C/C=C\CCCCCCCC(=O)O[C@H]1CC[C@@]2(C)C(=CC[C@H]3[C@@H]4CC[C@H]([C@H](C)CC[C@@H](CC)C(C)C)[C@@]4(C)CC[C@@H]32)C1 [β-Sitosterol-linoleate, stigmast-5-en-3-ol-9,12-octadecadienoate]",Tumor mass Σ1/2 L + B,[2]; TSA after 14 days,0 mm
same,Tumor mass Σ1/2 L + B,[2]; TSA after 21 days,+
same,Tumor mass Σ1/2 L + B,[2]; TSA after 28 days,1 mm
stigmast-5-en 3-ol-dodecenoate [C 12:1-SITOSTEROL],Active in dilution to 1:,[1],640 1:
same,Tumor mass Σ1/2 L + B,[2]; TSA after 14 days,1 mm
same,Tumor mass Σ1/2 L + B,[2]; TSA after 21 days,0 mm
same,Tumor mass Σ1/2 L + B,[2]; TSA after 28 days,2 mm
"stigmasta-5,22-dien-3-ol-doiecenoate [Stigmasterol-dodecenoate]",Tumor mass Σ1/2 L + B,[2]; TSA after 14 days,0 mm
same,Tumor mass Σ1/2 L + B,[2]; TSA after 21 days,0 mm
same,Tumor mass Σ1/2 L + B,[2]; TSA after 28 days,2 mm
β-SITOSTEROLUNDECENOATE [C 11:1-SITOSTEROL],Active in dilution to 1:,[1],40 1:
